Experimental data: patent US4299915A (priority 1977, dated 1981)
Read-outs that look alike come from different tables or passages of the source.

Key:
[1] = test system: 5-methyltryptophan-sensitive bacteria; settings: cited from earlier work
[2] = test system: wild-type control; format: cell-based, S. typhimurium
[3] = test system: 8AG^R mutants; experiment: Uptake of tagged 8AG by 8AG^R mutant clones; format: cell-based, S. typhimurium
[4] = test system: 8AG^R clones; format: cell-based, S. typhimurium; settings: for plating efficiency, 8AG w/cells: 50 ug/ml 8AG plus 10^6 8AG^S cells; for plating efficiency, 8AG: 50 ug/ml 8AG, control 1.00
[5] = test system: S. typhimurium strain TM35
[6] = test system: 8AG^R mutant fraction of S. typhimurium cultures
[7] = test system: mixed population of 8AG^S and 8AG^R cells; experiment: Reconstruction experiment 2: mixed 8AG^R/8AG^S population exposed to the mutation assay protocol; settings: 2 hr

## Cc1ccc2[nH]cc(C[C@H](N)C(=O)O)c2c1 [5-methyltryptophan]
[1]
  growth inhibition of 5-methyltryptophan-sensitive bacteria: not completely inhibited
[1]; varying concentration
  effect of varying the concentration on observed mutant fraction: changes the observed mutant fraction

## Nc1nc2nn[nH]c2c(=O)[nH]1 [8AG, 8-azaguanine]
[2]
  8AG incorporation rate of the wild-type control: 5×10^-18 moles/cell-hr
  Uptake in the control over time: linear through the 2 hr incubation
[3]; 9 of the mutants tested
  activity (8AG incorporation), mutants with no detectable activity: < 0.04%
[3]; mutant 9AA-1 (induced by 9AA)
  8AG Inc. (% wild-type): < 0.04 % wild-type
[3]; mutant 9AA-2 (induced by 9AA)
  8AG Inc. (% wild-type): < 0.04 % wild-type
[3]; mutant 9AA-3 (induced by 9AA)
  8AG Inc. (% wild-type): < 0.04 % wild-type
[3]; mutant 9AA-4 (induced by 9AA)
  8AG Inc. (% wild-type): < 0.04 % wild-type
[3]; mutant 9AA-5 (induced by 9AA)
  8AG Inc. (% wild-type): < 0.04 % wild-type
[3]; mutant BPL-1 (induced by βPL)
  8AG Inc. (% wild-type): 0.1 % wild-type
[3]; mutant BPL-2 (induced by βPL)
  8AG Inc. (% wild-type): 2.5 % wild-type
[3]; mutant BPL-3 (induced by βPL)
  8AG Inc. (% wild-type): 7.1 % wild-type
[3]; mutant BPL-4 (induced by βPL)
  8AG Inc. (% wild-type): 1.8 % wild-type
[3]; mutant BPL-5 (induced by βPL)
  8AG Inc. (% wild-type): 1.2 % wild-type
[3]; mutant ICR-1 (induced by ICR191)
  8AG Inc. (% wild-type): < 0.04 % wild-type
[3]; mutant ICR-2 (induced by ICR191)
  8AG Inc. (% wild-type): < 0.04 % wild-type
[3]; mutant ICR-3 (induced by ICR191)
  8AG Inc. (% wild-type): 0.80 % wild-type
[3]; mutant ICR-4 (induced by ICR191)
  8AG Inc. (% wild-type): < 0.04 % wild-type
[3]; mutant ICR-5 (induced by ICR191)
  8AG Inc. (% wild-type): 11.8 % wild-type
[3]; mutant NG-1 (induced by MNNG)
  8AG Inc. (% wild-type): 0.04 % wild-type
[3]; mutant NG-2 (induced by MNNG)
  8AG Inc. (% wild-type): 5.1 % wild-type
[3]; mutant NG-3 (induced by MNNG)
  8AG Inc. (% wild-type): 2.2 % wild-type
[3]; mutant NG-4 (induced by MNNG)
  8AG Inc. (% wild-type): 4.9 % wild-type
[3]; mutant NG-5 (induced by MNNG)
  8AG Inc. (% wild-type): 3.2 % wild-type
[3]; mutant S-1 (spontaneous)
  8AG Inc. (% wild-type): 2.4 % wild-type
[3]; mutant S-2 (spontaneous)
  8AG Inc. (% wild-type): 1.7 % wild-type
[3]; mutant S-3 (spontaneous)
  8AG Inc. (% wild-type): 18.3 % wild-type
[3]; mutant S-4 (spontaneous)
  8AG Inc. (% wild-type): 5.9 % wild-type
[3]; mutant S-5 (spontaneous)
  8AG Inc. (% wild-type): 19.5 % wild-type
[4]
  effect on plating efficiency, 8AG alone: no effect
  effect on plating efficiency, 8AG with 8AG^S cells: did decrease plating efficiency slightly
[4]; clone S-1
  plating efficiency, 8AG w/cells: 0.8 ± .07
  plating efficiency, 8AG: 0.93 ± .05
[4]; clone S-2
  plating efficiency, 8AG w/cells: 1.04 ± .03
  plating efficiency, 8AG: 1.16 ± .03
[4]; clone S-3, * statistically less than control (p < .05)
  plating efficiency, 8AG w/cells: 0.87 ± .08
[4]; clone S-3
  plating efficiency, 8AG: 0.95 ± .03
[4]; clone S-4, * statistically less than control (p < .05)
  plating efficiency, 8AG w/cells: 0.83 ± .03
[4]; clone S-4
  plating efficiency, 8AG: 0.98 ± .01
[4]; clone S-5, * statistically less than control (p < .05)
  plating efficiency, 8AG w/cells: 0.73 ± .08
[4]; clone S-5
  plating efficiency, 8AG: 0.92 ± .01

## Nc1c2ccccc2nc2ccccc12 [9AA, 9-aminoacridine]
[5]
  induced mutant fractions (M.F.): significantly higher than background levels

## COc1ccc2nc3cc(Cl)ccc3c(NCCCNCCCl)c2c1 [ICR-191]
[6]
  8AG^R mutant fraction when cultures are allowed to grow before plating: drops significantly and then stabilizes at a constant level
[5]
  induced mutant fractions (M.F.): significantly higher than background levels

## O=C1CCO1 [βPL, β-propiolactone]
[7]; 0, 0.16, and 1.60 mM
  ratio of 8AG^R cells to 8AG^S cells in the treated population: did not suffer significantly
[7]; high concentration (0, 0.16 and 1.60 mM tested)
  survival of the mixed population: killed a significant portion of the mixed population
[5]
  induced mutant fractions (M.F.): significantly higher than background levels
